Data as given in patent US20080004302A1, “Novel Compounds” (ASTRAZENECA AB, priority 2006, published 2008).
pIC50: −log10 of the molar value.

Columns and labels:
FGFR1 kinase = FGFR1 kinase (Homo sapiens, UniProt P11362); test: Kinase assay (using Caliper technology); assay type: biochemical; details: FGFR1 kinase, Caliper; upper bound of bin; read-out: IC50
Method: To determine inhibition of FGFR activity, kinase assays were conducted using Caliper technology.
Kinase activity assays were performed in Greiner 384-well low volume plates, with a total reaction volume of 12ul per well. […] The substrate for each assay was a custom peptide with fluorescent tag (13 amino acids in length) the sequence of which was specific for FGFR1 kinase.
Compounds were serially diluted in 5% (v/v) DMSO, before being added to assay plates.
Assay plates were incubated at room temperature for 1.5 h, before the reaction was stopped with the addition of buffer [comprising: 100 mM HEPES—pH7.5, 0.033% Brij-35, 0.22% Caliper Coating Reagent #3, 88mM EDTA, 5% DMSO]. Stopped assay plates were then read using the Caliper LabChip® LC3000 (which uses microfludics to measure a shift in mobility between fluorescent labelled peptide and the FGFR1 kinase—phosphorylated form of this peptide).

Erk phosphorylation = test: Growth factor (bFGF) stimulated Erk phosphorylation in NIH 3T3 cells; details: Mus musculus, NIH3T3, NIH 3T3 cells, 3 ng/ml bFGF; upper bound of bin
FGFR1 IIIc = target: T1, FGFR1 IIIc (Homo sapiens, UniProt P11362); test: Cell based inhibition of transiently expressed FGFR1 IIIc phosphorylation via use of ECHO technology (Cos-1 cells); details: Cos-1 cells, phospho-FGFR1, ECHO dosing; upper bound of bin; read-out: IC50
T1 construct: host or cells: Cos-1
Method: This assay is designed to detect inhibitors of transiently expressed FGFR1 phosphorylation by antibody staining of fixed cells detected using ArrayScan technology.
To undertake the assay, Cos-1 cells were harvested at 90-95% confluence for cell transfection. For each 96-well plate, 24μl Lipofectamine 2000 was added to 809 ul OptiMEM and incubated at room temperature for 5 minutes. […] Equal volumes of DNA and Lipofectamine 2000 were combined (DNA: Lipid=1:1.2 ratio) and incubated at room temperature for 20 minutes.
The harvested Cos-1 cells are counted using a coulter counter and diluted further with 1% FCS/DMEM to 2.5×10^5 cells/ml. For each 96-well, 8.33 ml cells were required. […] 70 μl of media was aspirated from the assay plate using the Quadra before the plate was transferred onto the ECHO 550. […] Compound transfer to the assay plate on the ECHO 550 was at concentration ranges 1)10 μM, 2) 3 μM, 3) 1 μM, 4) 0.3 μM, 5) 0.1 μM, 6) […].
The plates were gently tapped to mix compound in with the cell media and left to incubate at 37° C. with 5% CO2 for 1 hour.
Media was removed from the wells using vacuum aspiration; cells were fixed by adding 50 μl of 100% methanol to each well and incubated at room temperature for 20 minutes.
The plates were read on an Arrayscan (Cellomics).

human IGF1R = target: T2, human IGF1R (Homo sapiens, UniProt P08069); test: Inhibition of insulin-like growth factor-1 receptor phosphorylation in R+ cells; assay type: cell-based; details: 30 nM IGF1, read-out: IGF cell class
T2 construct: expressed in transfected cells; host or cells: R+ cells (R- mouse fibroblasts transfected with human IGF1R)
Method: This immunofluorescence end point cell assay measures the ability of a test compound to reduce the measured levels of IGF1R phosphorylation after IGF1 stimulation in R^+ cells. […] were derived by transfection of R^− mouse fibroblast cells with human IGF1R.
(+5% CO2) incubator for 30 minutes.
Following the compound treatment, the R^+ cells were stimulated with a final concentration of 30 nM IGF1 (Gropep 1M001) for 20 minutes at 37° C. […] Plates were incubated for 1 hour at room temperature. […] Additionally, in-house antibodies raised against phospho […] were also used at a suitable titre determined for each batch.
The plates were incubated at room temperature for one hour. […] After addition of 100 μl/well PBS the plates were sealed with a black seal.
The Green Fluorescent phospho IGF1R -associated signal in each well was measured using an Acumen Explorer HTS Reader (TTP Labtech Ltd., Cambridge). […] The instrument is a laser-scanning fluorescence microplate cytometer, which samples the well at regular intervals and uses threshold algorithms to identify all fluorescent intensities above the solution background without the need to generate and analyse an image. These fluorescent objects can be quantified and provide a measure of the phospho IGF1R levels in cells. Fluorescence dose response data obtained with each compound was exported into a suitable software package (such as Origin) to perform curve fitting analysis. Phospho-IGF1R levels in response to compound treatment versus stimulated and unstimulated controls were expressed as an IC50 value.

Sequence of FGFR1 kinase (P11362 22-822): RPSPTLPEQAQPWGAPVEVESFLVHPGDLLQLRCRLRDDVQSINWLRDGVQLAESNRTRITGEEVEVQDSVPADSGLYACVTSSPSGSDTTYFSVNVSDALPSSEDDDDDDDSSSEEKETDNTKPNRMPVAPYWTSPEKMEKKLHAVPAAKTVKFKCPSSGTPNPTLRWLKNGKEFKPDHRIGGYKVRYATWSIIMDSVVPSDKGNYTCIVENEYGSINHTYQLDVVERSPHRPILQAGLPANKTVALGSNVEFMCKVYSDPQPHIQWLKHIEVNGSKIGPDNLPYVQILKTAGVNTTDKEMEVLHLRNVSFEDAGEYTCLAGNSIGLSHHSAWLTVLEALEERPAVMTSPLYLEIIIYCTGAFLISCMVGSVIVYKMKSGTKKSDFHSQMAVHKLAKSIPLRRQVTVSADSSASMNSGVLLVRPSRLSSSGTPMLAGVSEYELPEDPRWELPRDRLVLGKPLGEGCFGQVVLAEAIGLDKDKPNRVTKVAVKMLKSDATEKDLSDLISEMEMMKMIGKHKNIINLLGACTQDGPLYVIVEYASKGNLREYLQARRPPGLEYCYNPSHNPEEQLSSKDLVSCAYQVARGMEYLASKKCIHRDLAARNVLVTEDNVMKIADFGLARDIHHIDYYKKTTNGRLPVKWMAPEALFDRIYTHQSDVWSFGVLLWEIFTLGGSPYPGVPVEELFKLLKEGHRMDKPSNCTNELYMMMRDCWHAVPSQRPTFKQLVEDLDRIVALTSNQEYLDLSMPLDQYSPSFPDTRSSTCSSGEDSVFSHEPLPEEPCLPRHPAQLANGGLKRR
T1 sequence (P11362 22-822): as above
T2 sequence (P08069 31-1367): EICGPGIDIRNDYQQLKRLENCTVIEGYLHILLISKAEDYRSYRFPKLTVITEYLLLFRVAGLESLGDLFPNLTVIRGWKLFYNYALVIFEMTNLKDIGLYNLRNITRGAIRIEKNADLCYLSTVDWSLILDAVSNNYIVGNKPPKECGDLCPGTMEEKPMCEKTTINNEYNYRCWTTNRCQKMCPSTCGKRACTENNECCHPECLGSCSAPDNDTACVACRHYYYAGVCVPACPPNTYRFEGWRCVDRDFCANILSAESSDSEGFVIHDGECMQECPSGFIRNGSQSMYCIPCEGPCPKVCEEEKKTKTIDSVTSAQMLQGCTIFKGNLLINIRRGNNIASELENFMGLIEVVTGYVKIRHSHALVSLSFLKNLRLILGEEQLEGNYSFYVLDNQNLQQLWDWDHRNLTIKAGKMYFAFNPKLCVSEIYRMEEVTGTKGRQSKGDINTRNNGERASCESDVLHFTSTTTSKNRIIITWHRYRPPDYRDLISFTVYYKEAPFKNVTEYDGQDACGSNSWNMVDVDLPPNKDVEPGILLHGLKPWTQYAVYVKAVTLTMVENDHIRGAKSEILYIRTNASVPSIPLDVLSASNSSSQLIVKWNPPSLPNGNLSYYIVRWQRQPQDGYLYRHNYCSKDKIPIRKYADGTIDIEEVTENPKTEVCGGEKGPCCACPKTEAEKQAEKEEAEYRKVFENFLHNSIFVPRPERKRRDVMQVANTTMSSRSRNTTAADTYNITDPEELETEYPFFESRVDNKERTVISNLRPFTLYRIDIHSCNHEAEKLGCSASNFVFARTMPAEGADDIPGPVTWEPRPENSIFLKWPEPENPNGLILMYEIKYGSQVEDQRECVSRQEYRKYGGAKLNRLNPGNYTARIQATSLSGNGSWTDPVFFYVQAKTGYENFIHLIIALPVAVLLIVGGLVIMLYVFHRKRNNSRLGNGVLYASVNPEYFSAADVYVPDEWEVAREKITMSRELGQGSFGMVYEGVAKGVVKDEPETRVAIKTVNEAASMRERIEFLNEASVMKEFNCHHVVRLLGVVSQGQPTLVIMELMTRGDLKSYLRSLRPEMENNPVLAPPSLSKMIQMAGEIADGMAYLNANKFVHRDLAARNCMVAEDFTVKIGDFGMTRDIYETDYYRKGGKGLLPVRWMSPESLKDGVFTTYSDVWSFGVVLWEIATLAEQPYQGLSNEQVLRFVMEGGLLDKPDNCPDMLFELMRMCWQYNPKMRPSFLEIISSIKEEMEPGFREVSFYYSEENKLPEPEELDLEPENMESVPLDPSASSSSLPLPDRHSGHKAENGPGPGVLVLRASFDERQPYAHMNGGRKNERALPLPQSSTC

SMILES	pIC50 (FGFR1 kinase)	pIC50 (Erk phosphorylation)	pIC50 (FGFR1 IIIc)	pIC50 (human IGF1R)
COCCCc1cc(Nc2ccnc(NCc3cc(C4CCC4)no3)n2)n[nH]1 [Example 23, N-[(3-Cyclobutyl1,2-oxazol-5-yl)methyl]-N′-[5-(3-methoxypropyl)-1H-pyrazol-3-yl]pyrimidine-2,4-diamine]	> 6.00	> 6.00		
COc1ccc(CCc2cc(Nc3ccnc(NCc4cc(-c5ncccn5)no4)n3)n[nH]2)cc1 [Example 32, N′-[5-[2-(4-methoxyphenyl)ethyl]-2H-pyrazol-3-yl]-N-[(3-pyrimidin-2-yl-1,2-oxazol-5-yl)methyl]pyrimidine-2,4-diamine]	> 6.00		> 6.00	5.00 to 6.00
c1ccc(OCc2cc(Nc3ccnc(NCc4cc(C5CC5)no4)n3)[nH]n2)cc1 [Example 35, N-[(3-cyclopropyl1,2-oxazol-5-yl)methyl]-N′-[5-(phenoxymethyl)-2H-pyrazol-3-yl]pyrimidine-2,4-diamine]	> 5.00	> 6.00		< 5.00
NC(=O)c1cc(CNc2nccc(Nc3cc(COc4ccccc4)n[nH]3)n2)on1 [Example 36, 5-[[[4-[[5-(phenoxymethyl)-2H-pyrazol-3-yl]amino]pyrimidin-2-yl]amino]methyl]1,2-oxazole-3-carboxamide]	> 5.00		> 4.52	< 5.00
Cc1cc(CNc2nccc(Nc3cc(CCc4ccc(OCc5ccccc5)cc4)[nH]n3)n2)on1 [Example 37, N-[(3-methyl1,2-oxazol-5-yl)methyl]-N′-[5-[2-(4-phenylmethoxyphenyl)ethyl]-2H-pyrazol-3-yl]pyrimidine-2,4-diamine]	> 4.52	> 5.00		5.00 to 6.00
NC(=O)c1cc(CNc2nccc(Nc3cc(CCc4ccccc4)n[nH]3)n2)on1 [Example 50, 5-[[[4-[(5-phenethyl-2H-pyrazol-3-yl)amino]pyrimidin-2-yl]amino]methyl]-1,2-oxazole-3-carboxamide]	> 6.00		> 5.00	< 5.00
Cc1cc(CNc2nccc(Nc3cc(CCc4cccc(N5CCOCC5)c4)[nH]n3)n2)on1 [Example 55, N-[(3-methyl1,2-oxazol-5-yl)methyl]-N′-[5-[2-(3-morpholin-4-ylphenyl)ethyl]-1H-pyrazol-3-yl]pyrimidine-2,4-diamine]	> 5.00	> 5.00		< 5.00
CCc1cccc(COc2cc(Nc3ccnc(NCc4cc(C)no4)n3)n[nH]2)c1 [Example 74, N′-[5-[(3-ethylphenyl)methoxy]-2H-pyrazol-3-yl]-N-[(3-methyl1,2-oxazol-5-yl)methyl]pyrimidine-2,4-diamine]	> 5.00	> 6.00		< 5.00
COCC(C)Oc1cc(Nc2ccnc(NCc3cc(C4CC4)no3)n2)n[nH]1 (centres unmarked) [Example 76, N-[(3-cyclopropyl-1,2-oxazol-5-yl)methyl]-N′-[5-(1-methoxypropan-2-yloxy)-1H-pyrazol-3-yl]pyrimidine-2,4-diamine]		> 6.00		< 5.00
CCOC(=O)c1cc(CNc2nccc(Nc3cc(OC(C)C)n[nH]3)n2)on1 [Example 77, Ethyl 5-[[[4-[(5-propan-2-yloxy-2H-pyrazol-3-yl)amino]pyrimidin-2-yl]amino]methyl]1,2-oxazole-3-carboxylate]		> 6.00		
CC(C)Oc1cc(Nc2ccnc(NCc3cc(C(=O)N(C)C)no3)n2)[nH]n1 [Example 80, N,N-dimethyl-5-[[[4-[(5-propan-2-yloxy-2H-pyrazol-3-yl)amino]pyrimidin-2-yl]amino]methyl]1,2-oxazole-3-carboxamide]	> 6.00	> 5.00		
CC(C)Oc1cc(Nc2ccnc(NCc3cc(-c4cncnc4)no3)n2)n[nH]1 [Example 81, N′-(5-propan-2-yloxy-2H-pyrazol-3-yl)-N-[(3-pyrimidin-5-yl1,2-oxazol-5-yl)methyl]pyrimidine-2,4-diamine]	> 5.00	> 5.00		
CC(C)Oc1cc(Nc2ccnc(NCc3cc(C4CCOC4)no3)n2)[nH]n1 (centres unmarked) [Example 83, N-[[3-(oxolan-3-yl)1,2-oxazol-5-yl]methyl]-N′-(5-propan-2-yloxy-2H-pyrazol-3-yl)pyrimidine-2,4-diamine]	> 6.00	> 5.00		
CC(C)Oc1cc(Nc2ccnc(NCc3cc(C4CCOCC4)no3)n2)[nH]n1 [Example 85, N-[[3-(oxan-4-yl)1,2-oxazol-5-yl]methyl]-N′-(5-propan-2-yloxy-2H-pyrazol-3-yl)pyrimidine-2,4-diamine]	> 5.00	> 5.00		
CCOc1cc(Nc2ccnc(NCc3cc(C)no3)n2)n[nH]1 [Example 86, N′-(5-ethoxy-1H-pyrazol-3-yl)-N-[(3-methyl1,2-oxazol-5-yl)methyl]pyrimidine-2,4-diamine]	> 6.70	> 6.00		
Cc1cc(CNc2nccc(Nc3cc(OCc4cccc(N5CCOCC5)c4)[nH]n3)n2)on1 [Example 87, N-[(3-methyl1,2-oxazol-5-yl)methyl]-N′-[5-[(3-morpholin-4-ylphenyl)methoxy]-2H-pyrazol-3-yl]pyrimidine-2,4-diamine]	> 5.00	> 5.00		< 5.00
Cc1cc(CNc2nccc(Nc3cc(OCc4cccc(NC(=O)OC(C)(C)C)c4)[nH]n3)n2)on1 [Example 89, tert-Butyl N-[3-[[5-[[2-[(3-methyl1,2-oxazol-5-yl)methylamino]pyrimidin-4-yl]amino]-1H-pyrazol-3-yl]oxymethyl]phenyl]carbamate]	> 6.00	> 6.00		5.00 to 6.00
Cc1cc(CNc2nccc(Nc3cc(OCc4cccc(C(=O)O)c4)[nH]n3)n2)on1 [Example 98, 3-[[5-[[2-[(3-methyl1,2-oxazol-5-yl)methylamino]pyrimidin-4-yl]amino]-1H-pyrazol-3-yl]oxymethyl]benzoic acid]	> 5.00	> 5.00		
Cc1cc(CNc2nccc(Nc3cc(OCCOc4ccccc4)[nH]n3)n2)on1 [Example 101, N-[(3-methyl1,2-oxazol-5-yl)methyl]-N′-[5-(2-phenoxyethoxy)-2H-pyrazol-3-yl]pyrimidine-2,4-diamine]	> 6.00		> 6.00	< 5.00
NC(=O)c1cc(CNc2nccc(Nc3cc(CCc4ccco4)n[nH]3)n2)on1 [Example 112, 5-[[[4-[[5-[2-(2-furyl)ethyl]-2H-pyrazol-3-yl]amino]pyrimidin-2-yl]amino]methyl]1,2-oxazole-3-carboxamide]	> 6.70	> 5.00		
CNC(=O)c1cc(C)cc(CCc2cc(Nc3ccnc(NCc4cc(C)no4)n3)n[nH]2)c1 [Example 142, N,3-dimethyl-5-[2-[5-[[2-[(3-methyl-1,2-oxazol-5-yl)methylamino]pyrimidin-4-yl]amino]-1H-pyrazol-3-yl]ethyl]benzamide]	> 4.52		> 5.00	
CNC(=O)c1cc(OC)cc(CCc2cc(Nc3ccnc(NCc4cc(C)no4)n3)n[nH]2)n1 [Example 143, 4-Methoxy-N-methyl-6-[2-[5-[[2-[(3-methyl-1,2-oxazol-5-yl)methylamino]pyrimidin-4-yl]amino]-1H-pyrazol-3-yl]ethyl]pyridine-2-carboxamide]	> 5.00		> 4.52	
